ChEMBL document CHEMBL1133151 (2000)

Tests used:
[1] = target: T1, Voltage-dependent N-type calcium channel subunit alpha-1B (Homo sapiens, UniProt Q00975); test: Inhibition of N-type calcium channel (VSCC) in IMR-32 at 10 uM
Target sequence in this assay (Q00975 whole entry): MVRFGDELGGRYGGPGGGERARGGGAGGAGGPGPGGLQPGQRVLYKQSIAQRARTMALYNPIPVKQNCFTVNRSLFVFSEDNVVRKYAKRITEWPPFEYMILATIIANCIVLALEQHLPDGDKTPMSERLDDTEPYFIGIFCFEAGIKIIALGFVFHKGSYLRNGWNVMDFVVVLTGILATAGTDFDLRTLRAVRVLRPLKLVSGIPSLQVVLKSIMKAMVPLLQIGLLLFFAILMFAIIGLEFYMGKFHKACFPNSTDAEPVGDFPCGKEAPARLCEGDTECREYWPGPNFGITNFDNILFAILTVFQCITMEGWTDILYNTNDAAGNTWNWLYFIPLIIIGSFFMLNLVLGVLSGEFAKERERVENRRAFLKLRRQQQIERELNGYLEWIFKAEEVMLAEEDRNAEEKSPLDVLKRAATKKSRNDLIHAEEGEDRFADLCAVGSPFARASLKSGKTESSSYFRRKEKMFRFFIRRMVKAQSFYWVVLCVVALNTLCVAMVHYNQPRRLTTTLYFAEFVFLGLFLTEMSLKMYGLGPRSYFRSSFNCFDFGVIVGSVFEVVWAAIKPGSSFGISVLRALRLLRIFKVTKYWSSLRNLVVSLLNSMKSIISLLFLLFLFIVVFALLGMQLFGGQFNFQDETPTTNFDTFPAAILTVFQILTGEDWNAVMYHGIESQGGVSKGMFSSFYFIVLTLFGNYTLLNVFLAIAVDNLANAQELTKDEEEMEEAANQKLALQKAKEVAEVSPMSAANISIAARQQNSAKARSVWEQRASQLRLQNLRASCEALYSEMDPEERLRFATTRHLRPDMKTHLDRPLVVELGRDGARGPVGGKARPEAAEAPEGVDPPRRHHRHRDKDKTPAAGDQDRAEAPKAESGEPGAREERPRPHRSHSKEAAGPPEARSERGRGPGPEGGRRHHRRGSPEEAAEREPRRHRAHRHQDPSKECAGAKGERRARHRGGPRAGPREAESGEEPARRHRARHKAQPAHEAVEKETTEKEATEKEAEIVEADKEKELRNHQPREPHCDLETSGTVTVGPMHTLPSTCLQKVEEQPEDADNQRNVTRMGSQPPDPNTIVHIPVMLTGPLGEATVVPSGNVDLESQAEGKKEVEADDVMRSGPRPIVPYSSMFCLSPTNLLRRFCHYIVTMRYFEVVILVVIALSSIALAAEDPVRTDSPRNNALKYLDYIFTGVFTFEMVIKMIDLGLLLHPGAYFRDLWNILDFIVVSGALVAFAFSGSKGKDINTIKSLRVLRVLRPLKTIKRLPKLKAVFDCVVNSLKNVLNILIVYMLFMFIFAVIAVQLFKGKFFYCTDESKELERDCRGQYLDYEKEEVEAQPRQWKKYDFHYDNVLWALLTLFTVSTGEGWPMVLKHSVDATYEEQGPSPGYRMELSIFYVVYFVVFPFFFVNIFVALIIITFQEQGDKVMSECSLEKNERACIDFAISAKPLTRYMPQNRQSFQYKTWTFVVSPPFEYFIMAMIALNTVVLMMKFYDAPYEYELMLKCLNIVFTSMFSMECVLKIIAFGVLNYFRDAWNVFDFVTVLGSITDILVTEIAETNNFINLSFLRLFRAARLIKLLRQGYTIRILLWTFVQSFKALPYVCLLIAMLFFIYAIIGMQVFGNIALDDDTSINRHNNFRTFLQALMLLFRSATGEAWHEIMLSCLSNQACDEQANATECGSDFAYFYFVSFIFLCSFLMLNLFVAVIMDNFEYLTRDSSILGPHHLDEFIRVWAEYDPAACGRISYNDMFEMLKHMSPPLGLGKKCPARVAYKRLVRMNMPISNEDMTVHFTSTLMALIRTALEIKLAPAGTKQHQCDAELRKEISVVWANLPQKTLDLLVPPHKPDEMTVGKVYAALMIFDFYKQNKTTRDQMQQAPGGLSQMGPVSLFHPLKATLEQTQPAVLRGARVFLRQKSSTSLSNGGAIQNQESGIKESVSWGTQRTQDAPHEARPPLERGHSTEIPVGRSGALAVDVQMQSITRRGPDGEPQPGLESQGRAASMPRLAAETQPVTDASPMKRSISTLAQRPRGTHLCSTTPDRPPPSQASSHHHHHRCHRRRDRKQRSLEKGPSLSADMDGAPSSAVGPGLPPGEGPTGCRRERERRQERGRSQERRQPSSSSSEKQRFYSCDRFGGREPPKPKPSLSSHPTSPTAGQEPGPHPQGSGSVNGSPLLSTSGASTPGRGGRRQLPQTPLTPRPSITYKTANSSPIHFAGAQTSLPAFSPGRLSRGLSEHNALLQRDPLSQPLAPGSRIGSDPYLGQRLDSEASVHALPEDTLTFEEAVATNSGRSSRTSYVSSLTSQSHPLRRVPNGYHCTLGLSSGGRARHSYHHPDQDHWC

[2] = target: T2, Voltage-gated L-type calcium channel (Rattus norvegicus, UniProt P22002+Q02485+P27732); test: Inhibition of L-type [Ca2+] channel (VSCC) in rat A7r5 vascular smooth muscle cells
[3] = target: T1, Voltage-dependent N-type calcium channel subunit alpha-1B; test: Inhibition of N-type calcium channel (VSCC) in IMR-32 at 10 uM
Target sequence in this assay (Q00975 whole entry, looked up): as the sequence (Q00975 whole entry) above

[4] = target: T2, Voltage-gated L-type calcium channel; test: Inhibition of L-type [Ca2+] channel (VSCC) in rat A7r5 vascular smooth muscle cells; remark: listed apart in the source

Row | Structure (SMILES) | IC50 [1] | IC50 [2] | inhibition [3] | Inhibition [4]
1 | CC(C)Oc1cc(OCCc2ccc(C(=N)N)cc2)cc(OCc2ccccc2CCc2cccc(O)c2)c1 | 2.7 µM | 3 µM |  | 
2 | CC(C)Oc1cc(OCCc2ccc(C(=N)N)cc2)cc(OCc2ccccc2CCc2ccc(O)cc2)c1 | 3.3 µM | 4.2 µM |  | 
3 | CC(C)CCOc1cc(OCCCc2ccccc2OCCCc2ccc(O)cc2)cc(OCCc2ccc(C(=N)N)cc2)c1 |  |  | 19% | 69%
